Some test systems named below: OVCAR-5; NCI-H460; SR; HT-29; MDA-MB-435; BT-549; DU-145; SW-620; LOX IMVI; OVCAR-8; COLO 205; HCT-116; TK-10; OVCAR-3; MDA-MB-231; SF-268; UO-31; HCT-15; OVCAR-4; HCC 2998.
What all share (test): NCI-60 cell line screen, 48 h

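Values below derive from 48-hour exposures of cells grown in 96-well plates, with endpoints linearly interpolated between the two concentrations bracketing the appropriate inhibition level. GI50 = concentration required for 50% inhibition of growth.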 Calls of active or inactive are those of the source. Rule as the data show it: active = GI50 up to about 1.1 µM and inactive = higher.

With `COc1ccc(/C=N/n2c(=O)[nH]c3ccccc3c2=O)cc1`, the GI50 in the test on OVCAR-5, in the test with NCI-H460, with SR, in the test with HT-29, with MDA-MB-435 and with BT-549 was > 100 µM (inactive) throughout. In addition, the GI50 with DU-145, with SW-620, in the test on LOX IMVI, in the test on OVCAR-8, in the test with COLO 205 and in the test with HCT-116 was > 100 µM (inactive) in each case. Besides, the GI50 is > 100 µM (inactive) with TK-10; > 100 µM (inactive) with OVCAR-3; > 100 µM (inactive) with MDA-MB-231; > 100 µM (inactive) with SF-268; > 100 µM (inactive) with UO-31; more than 100 µM in the test on HCT-15.

Take `CCOC(=O)N1C=CC(=C2C(=C3C=CN(C(=O)OCC)C=C3)C(=C3C=CN(C(=O)OCC)C=C3)C2=C2C=CN(C(=O)OCC)C=C2)C=C1`: the GI50 is 36.8 µM (inactive) with OVCAR-5; 22.9 µM (inactive) with NCI-H460; 6.24 µM (inactive) in the test with SR; 22.2 µM (inactive) in the test with HT-29; 38 µM (inactive) with OVCAR-4; 22.2 µM (inactive) in the test with MDA-MB-435. Also, the GI50 in the test with BT-549 was 40.5 µM (inactive); in the test on DU-145, 35.3 µM (inactive); in the test on SW-620 it was 17 µM (inactive); with LOX IMVI, 12.2 µM (inactive); in the test on OVCAR-8 it was 27.1 µM (inactive); in the test with COLO 205, 23.1 µM (inactive). The GI50 in the test on HCT-116 is 11.1 µM (inactive); in the test with TK-10 it was 26 µM (inactive); in the test on OVCAR-3, 22.4 µM (inactive); in the test on MDA-MB-231 it was 10.4 µM (inactive); in the test with SF-268, 31.5 µM (inactive); in the test on UO-31 it was 12.9 µM (inactive). The molecule also showed a GI50 with HCT-15 of 12.4 µM.

Regarding `CC(=O)O/C(=C(/C#N)C(=O)O)C1C(C(=O)O)C(c2ccccc2[N+](=O)[O-])C=C(c2ccco2)N1c1ccncc1` (stereo not drawn), the GI50 in the test on OVCAR-5 was 7.89 µM (inactive); in the test on NCI-H460 it was 6.35 µM (inactive); in the test with HT-29, 1.61 µM (inactive); in the test on OVCAR-4, 14.3 µM (inactive); in the test with HCC 2998 it was 4.97 µM (inactive); in the test on MDA-MB-435, 4.62 µM (inactive). The GI50 was 6.04 µM (inactive) in the test with BT-549; 8.49 µM (inactive) with DU-145; 1.85 µM (inactive) in the test with SW-620; 1.91 µM (inactive) with LOX IMVI; 5.02 µM (inactive) in the test on OVCAR-8; 3.41 µM (inactive) with COLO 205. The GI50 was 1.52 µM (inactive) with HCT-116; 3.33 µM (inactive) in the test on TK-10; 2.94 µM (inactive) in the test with OVCAR-3; 4.78 µM (inactive) with MDA-MB-231; 9.23 µM (inactive) in the test on SF-268; 2.87 µM (inactive) in the test with UO-31. In addition, in the test with HCT-15, the GI50 was 1.71 µM.

For `COC(=O)C(=O)C(C(=O)C(=O)Nc1ccc(C)cc1C)c1nc2ccc(Cl)cc2nc1O` (stereo not drawn), the GI50 in the test with OVCAR-5, in the test on NCI-H460, in the test with HT-29, in the test with OVCAR-4, in the test with HCC 2998 and in the test on MDA-MB-435 was > 100 µM (inactive) in each case. Also, the GI50 with BT-549, in the test on DU-145, in the test on SW-620, with LOX IMVI, in the test on OVCAR-8 and in the test on COLO 205 was > 100 µM (inactive) throughout. Moreover, the GI50 was > 100 µM (inactive) with HCT-116; > 100 µM (inactive) in the test on TK-10; > 100 µM (inactive) in the test on OVCAR-3; > 100 µM (inactive) with MDA-MB-231; > 100 µM (inactive) in the test on SF-268; 47.6 µM (inactive) in the test with UO-31. Also, in the test on HCT-15, the GI50 is more than 100 µM.

For `Cc1ccc(C)c(NC(=O)C(Cc2c[nH]c3ccccc23)NC(=O)OCc2ccccc2)c1` (stereo not drawn), the GI50 is 25.6 µM (inactive) in the test on OVCAR-5; 13.7 µM (inactive) in the test with NCI-H460; 14.3 µM (inactive) in the test on SR; 12.4 µM (inactive) in the test with HT-29; 5.12 µM (inactive) in the test on OVCAR-4; 21.9 µM (inactive) in the test on MDA-MB-435. Besides, the GI50 in the test with BT-549 is 21.8 µM (inactive); with DU-145, 13.5 µM (inactive); in the test with SW-620, 15.1 µM (inactive); in the test on LOX IMVI, 37.3 µM (inactive); with OVCAR-8, 17.5 µM (inactive); with COLO 205, 13.2 µM (inactive). Also, the GI50 in the test on HCT-116 is 23 µM (inactive); in the test on TK-10 it was 15.3 µM (inactive); in the test with OVCAR-3 it was 29.7 µM (inactive); in the test with MDA-MB-231, 16.1 µM (inactive); with SF-268 it was 26.4 µM (inactive); in the test on UO-31, 15.4 µM (inactive). The molecule further showed a GI50 in the test with HCT-15 of 20.9 µM.

Consider `COc1ccc(C2SC(=N)Nc3c2c(C)nn3C(=O)c2ccncc2)cc1` (stereo not drawn), for which the GI50 with OVCAR-5 is > 100 µM (inactive); with NCI-H460, 42.3 µM (inactive); in the test on SR, 21.2 µM (inactive); in the test on HT-29 it was > 100 µM (inactive); with OVCAR-4, 43.3 µM (inactive); with MDA-MB-435 it was 70.6 µM (inactive). In addition, the GI50 in the test on BT-549 is > 100 µM (inactive); with DU-145, > 100 µM (inactive); in the test on SW-620 it was > 100 µM (inactive); in the test with LOX IMVI, > 100 µM (inactive); in the test on OVCAR-8, > 100 µM (inactive); in the test with COLO 205 it was 57.7 µM (inactive). Moreover, the GI50 is > 100 µM (inactive) in the test on HCT-116; > 100 µM (inactive) with TK-10; 40.4 µM (inactive) with OVCAR-3; > 100 µM (inactive) in the test on MDA-MB-231; > 100 µM (inactive) in the test with SF-268; > 100 µM (inactive) in the test on UO-31. Further, the GI50 in the test on HCT-15 is more than 100 µM.

As to `c1ccc(CCCN2C3CCC2CN(CCOC(c2ccccc2)c2ccccc2)C3)cc1`, the GI50 is 12.7 µM (inactive) with OVCAR-5; 8.75 µM (inactive) with NCI-H460; 3.58 µM (inactive) in the test on HT-29; 10.2 µM (inactive) with OVCAR-4; 5.21 µM (inactive) in the test on HCC 2998; 12.4 µM (inactive) with MDA-MB-435. Moreover, the GI50 in the test on BT-549 was 12.4 µM (inactive); in the test on DU-145, 16.4 µM (inactive); in the test with SW-620 it was 15.6 µM (inactive); with LOX IMVI it was 12.1 µM (inactive); with OVCAR-8, 11.4 µM (inactive); with COLO 205 it was 1.68 µM (inactive). Also, the GI50 with HCT-116 is 7.05 µM (inactive); in the test on TK-10 it was 12.5 µM (inactive); in the test on OVCAR-3, 13.2 µM (inactive); in the test on MDA-MB-231, 8.3 µM (inactive); in the test on SF-268, 14 µM (inactive); in the test on UO-31 it was 12.2 µM (inactive). The molecule further showed a GI50 with HCT-15 of 4.72 µM.

In the case of `OC1CCN(c2c3ccccc3nc3ccccc23)CC1`, the GI50 was 51.8 µM (inactive) in the test on OVCAR-5; 21.3 µM (inactive) in the test on NCI-H460; 2.77 µM (inactive) in the test with SR; 2.28 µM (inactive) with HT-29; 17.6 µM (inactive) in the test with OVCAR-4; 19.7 µM (inactive) with MDA-MB-435. Also, the GI50 with BT-549 is 17.7 µM (inactive); in the test on DU-145, 5.22 µM (inactive); with SW-620 it was 3.36 µM (inactive); in the test with LOX IMVI, 4.52 µM (inactive); with OVCAR-8 it was 24.8 µM (inactive); in the test with COLO 205, 3.13 µM (inactive). Besides, the GI50 in the test on HCT-116 is 4.84 µM (inactive); with TK-10, 4.03 µM (inactive); in the test with OVCAR-3 it was 7.23 µM (inactive); with MDA-MB-231, 25.1 µM (inactive); in the test on SF-268, 17.2 µM (inactive); in the test on UO-31, 2.45 µM (inactive). Moreover, in the test with HCT-15, the GI50 was 16.5 µM.

Take `COc1ccccc1/N=N/c1c(O)c(S(=O)(=O)O)cc2cc(S(=O)(=O)O)ccc12`: the GI50 in the test on OVCAR-5, in the test on SR, in the test with HT-29, in the test with OVCAR-4, in the test on MDA-MB-435 and with BT-549 was > 100 µM (inactive) throughout. Further, the GI50 in the test on DU-145, in the test with SW-620, in the test with LOX IMVI, with OVCAR-8, with COLO 205 and with HCT-116 was > 100 µM (inactive) throughout. Besides, the GI50 in the test with TK-10 is > 100 µM (inactive); in the test with OVCAR-3 it was > 100 µM (inactive); with MDA-MB-231, > 100 µM (inactive); in the test with SF-268, > 100 µM (inactive); with UO-31 it was > 100 µM (inactive); in the test with HCT-15, more than 100 µM.

On to `O=c1c(Cc2cccc(Cc3c(O)oc4ccccc4c3=O)c2)c(O)oc2ccccc12`, for which the GI50 in the test with OVCAR-5, with NCI-H460, with HT-29, in the test with OVCAR-4, with HCC 2998 and in the test with MDA-MB-435 was > 100 µM (inactive) throughout. The GI50 in the test with BT-549, with DU-145, with SW-620, with LOX IMVI, in the test with OVCAR-8 and in the test on COLO 205 was > 100 µM (inactive) each time. The GI50 in the test on HCT-116, in the test with TK-10, in the test on OVCAR-3, with MDA-MB-231, with SF-268 and in the test with UO-31 was > 100 µM (inactive) each time. The molecule also had a GI50 in the test with HCT-15 of more than 100 µM.

Source of the values: ChEMBL document CHEMBL1201862, “PubChem BioAssay data set” (2004).
